In article PMC10002422, “Aggregation Limiting Cell-Penetrating Peptides Derived from Protein Signal Sequences” (International Journal of Molecular Sciences, 2023):
Where no end group is shown, it is not given here.

Legend:
[1] = test system: Aβ1–42-GFP fusion protein expressed in U87 cells; assay: Reduction in expressed Aβ1–42-GFP aggregation, flow cytometry; format: cell-based, human; conditions: control inhibitor
[2] = test system: U87 cells
Procedure: Cell proliferation was analyzed with the CellTiter 96® Aqueous Non-Radioactive Cell Proliferation Assay (MTS) (Promega Biotech AB, Stockholm, Sweden) according to the manufacturer’s instructions. For this 1 × 10^5 U87 cells were seeded one day prior to the experiment on a transparent 96-well plate. On the experiment day, the media was replaced with 90 μL of fresh serum free or serum (10% FBS) containing media and to the wells, the peptides at the concentration range of 0–20 µM were added. The absorbance of formazan product was measured 20 h post-addition of peptides at 490 nm with Tecan Sunrise microplate absorbance reader (Tecan Group Ltd., Stockholm, Sweden). […] Additional background controls: MTS–reagent and media, without cells, Media–cells with only media and without reagent.

Row | Molecule | green signal in Aβ42–EGFP expressing cells after known Aβ inhibitor [1] | peptide concentration at which cell viability is reduced (MTS) in serum free media [2] | reduction in the viability of cells (MTS) in serum free media [2]
1 | O=S1(=O)OC(c2ccc(O)cc2)(c2ccc(O)cc2)c2ccccc21 [phenol red] | significantly increased the green signal |  | 
2 | MANLGYWLLALFVTMWTDVGLCKKRPKP-NH2 [PrP1–28] |  | 2.5 µM | over 20%
3 | MLRTKDLIWTLFFLGTAVSKKRPKP-NH2 [NCAM1_1–19PrP23–28] |  | 20 µM | 
